# System: not listed separately
# Assay: Odour description (olfactory evaluation of the compound)
# Conditions: stated within the odour description
row,Structure (SMILES),Odour strength compared to another compound
1,"C[C@@H]1OC[C@H](C)[C@]2(C[C@H]3CC[C@]2(C)C3(C)C)O1 (single isomer, unassigned) [Compound 1c]",weaker than 1b
2,"CC[C@@H]1OC[C@H](C)[C@]2(C[C@H]3CC[C@]2(C)C3(C)C)O1 [Compound 1h, (1R,2S,2′R,4R,5′S)-2′-Ethyl-1,5′,7,7-tetramethylspiro[bicyclo[2.2.1]heptane-2,4′-[1,3]dioxane]]",weaker than compound 1g
3,"CC(C)[C@@H]1OC[C@H](C)[C@]2(C[C@H]3CC[C@]2(C)C3(C)C)O1 [Compound 1j, (1R,2S,2′R,4R,5′S)-2′-Isopropyl-1,5′,7,7-tetramethylspiro[bicyclo[2.2.1]heptane-2,4′-[1,3]dioxane]]",weaker than compound 1i

# System: panel of trained evaluators
# Assay: Determination of GC-odour threshold concentration
# Conditions: gas chromatograph with sniff port; racemic mixture of compounds; group of 4 panelists; identical conditions
# Description: Determination of GC-odour threshold concentration
# According to standard procedures known to the person skilled in the art, threshold concentrations for volatile perfumery compounds are determined on a gas chromatograph equipped with a sniff port by a panel of trained evaluators. The lowest concentration smelled by each panellist is recorded as the individual threshold concentration expressed in ng (absolute amount of compound delivered at the sniff port).
# Under identical conditions the odour threshold concentration for racemic mixture of compounds A, B and C respectively was measured and compared by a group of 4 panelists.
row,Structure (SMILES),odour threshold concentration geometric mean [ng]
1,CC1OCCC2(CC3CCC2(C)C3(C)C)O1 (racemic) [A],22
2,CC1CC2(CC3CCC2(C)C3(C)C)OC(C)O1 (racemic) [B],68
3,CC1OCC(C)C2(CC3CCC2(C)C3(C)C)O1 (stereo not drawn) [C],3

# System: not listed separately
# Assay: Relative odour threshold of constituents compared to the whole stereoisomer mixture
# Conditions: ratio rac-1b: rac-1d: 1f
# Excerpt: b) A 6:2:1 racemic mixture If of diastereomers of (1R*,2S*,2′S*,4R*,5′R*)-, (1R*,2S*,2′S*,4R*,5′S*)- and (1R*,2S*,2′R*,4R*,5′S*)-1,2′,5′,7,7-pentamethylspiro[bicyclo[2.2.1]heptane-2,4′-[1,3]dioxane] was obtained in 38% overall yield following the experimental procedure of Example 1c, starting from the diol mixture 2d obtained from rac-camphor via 2-(1-methylallyl)-1,7,7-trimethylbicyclo[2.2.1]heptan-2-ol (5a), applying the methodology of Kostova et al (Helv. Chim. Acta 1999, 82, 1385), i.e. route III. The epimeric intermediate enols and diols were not separated. (1R*,2S*,2′S*,4R*,5′S*)- and (1R*,2S*,2′S*,4R*,5′R*)- enatiomeric pairs are the strongest constituents of the mixture. Their relative odour threshold, compared to the whole stereoisomer mixture, were 1:50:4 (rac-1b: rac-1d: 1f).
row,Structure (SMILES),relative odour threshold
1,"CC1OCC(C)C2(CC3CCC2(C)C3(C)C)O1 (racemic) [Compound 1f, (1RS,2SR,2′RS/SR,4RS,5′RS/SR)-1,2′,5′,7,7-Pentamethylspiro[bicyclo[2.2.1]heptane-2,4′-[1,3]dioxane]]",4
2,CC1OCC(C)C2(CC3CCC2(C)C3(C)C)O1 (racemic) [rac-1b],1
3,CC1OCC(C)C2(CC3CCC2(C)C3(C)C)O1 (racemic) [rac-1d],50
